Experimental data taken from US20260167706A1, “ANTI-ADRENOMEDULLIN (ADM) ANTIBODY OR ANTI-ADM ANTIBODY FRAGMENT OR ANTI-ADM NON-IG SCAFFOLD FOR USE IN THERAPY OR PREVENTION OF SHOCK” (ADRENOMED AG, priority 2022, published 2026).
Read-outs that look alike come from different tables or passages of the source.

What was measured:
[1] = test system: mice with CLP-induced sepsis; conditions: pre-treatment, cited from earlier work
[2] = test system: patients with septic shock and elevated adrenomedullin; experiment: AdrenOSS-2 phase II clinical trial, mortality versus placebo; type: in vivo, human
endotoxemic rats = conditions: pre-treatment; cited from earlier work
[3] = test system: subjects of phase I study; conditions: cited from earlier work
[4] = test system: patients with septic shock and elevated adrenomedullin; experiment: AdrenOSS-2 phase II clinical trial, mortality versus placebo; type: in vivo, human; conditions: for all-cause mortality compared to the placebo arm: 28 days
Source text: AdrenOSS-2 is a double-blind, placebo-controlled, randomized, multicenter, proof of concept and dose-finding phase II clinical trial to investigate the safety, tolerability and efficacy of the N-terminal ADM antibody named Adrecizumab in patients with septic shock and elevated adrenomedullin (Geven et al. BMJ Open 2019; 9:e024475). In total, 301 patients with septic shock and bio-ADM concentration >70 pg/mL were randomized (2:1:1) to treatment with a single intravenous infusion over approximately 1 hour with either placebo (n=152), adrecizumab 2 ng/kg (n=72) or adrecizumab 4 ng/kg (n=77). All-cause mortality within 28 (90) days after inclusion was 25.8% (34.8%). Mean age was 68.4 years and 61% were male. For the per protocol analysis, n=294 patients remained eligible, and 14-day all-cause mortality rate was 18.5%.
To validate the findings from example 10 and for proof of concept, the different lower thresholds for DPP3 at baseline (day 1) were assessed for efficacy of the anti-ADM antibody (Adrecizumab) therapy in the septic shock population with high bio-ADM from the AdrenOSS-2 study cohort and patients with a DPP3 plasma value above the different lower thresholds were excluded from the analyses. Efficacy of the anti-bio-ADM antibody therapy was specifically assessed to what concerns the mortality endpoint in the placebo and treated arms.
The DPP3 plasma levels in septic shock with high bio-ADM (above […]) patients (n=298) at baseline and in the following 144 h were statistically analysed with the aim of determining a DPP3 threshold at baseline to assess anti-ADM antibody therapy efficacy. Patients above the respective DPP3 plasma thresholds were excluded from the analyses. Different DPP3 plasma concentration thresholds have been applied for 28-day all-cause mortality evaluation using Kaplan-Meier plots comparing anti-ADM antibody therapy vs. placebo. The log-rank test was chosen for showing differences in mortality rates among treatment groups. Hazard ratios (HR) were calculated for each DPP3 plasma concentration threshold to estimate the reduction in mortality risk imposed by anti-ADM antibody therapy relative to placebo.
The different thresholds for DPP3 levels at baseline (day 1) were further used for subgroup analyses for 28-day all-cause mortality evaluation using Kaplan-Meier plots in the treated and placebo arms comparing anti-ADM antibody therapy (Adrecizumab) vs. placebo. The DPP3 plasma concentration thresholds at baseline used were 50 ng/ml and 30 ng/ml.

For “Adrecizumab: humanized N-terminal anti-ADM antibody; heavy chain SEQ ID NO: 32, light chain SEQ ID NO: 33”, the renal vascular leakage ([1]; mice with CLP-induced sepsis) is given as “attenuated”, the 7-day survival ([1]; repeated dose administration (control 0%)) is given as 40% and the 7-day survival ([1]; single dose administration (control 10%)) is given as 50%. For the same substance, the “HR for 14-day mortality” value ([2]; elevated DPP3 above 50 ng/mL) was 1.69, the “HR for 14-day mortality” value ([2]; pre-dose DPP3 <40) was 0.385 and the “HR for 14-day mortality” value ([2]; pre-dose DPP3 <50 (ng/mL)) was 0.426. For the same substance, the “HR for 14-day mortality” value ([2]; pre-dose DPP3 <60) was 0.449, the “HR for 14-day mortality” value ([2]; pre-dose DPP3 <70) was 0.546 and the “HR for 14-day mortality” value ([2]; pre-dose DPP3 <90) was 0.606. For the same substance, the renal vascular leakage (endotoxemic rats) was “attenuated”, the serious adverse events [3] was “no serious adverse events were observed” and the “all-cause mortality compared to the placebo arm” value ([4]; DPP3 below 30 ng/ml (n=195)) was “significantly reduced”. For the same substance, the “all-cause mortality compared to the placebo arm” value ([4]; DPP3 below 50 ng/ml) was “lower than the placebo arm”, the “all-cause mortality compared to the placebo arm” value ([4]; DPP3 below 50 ng/ml at baseline and continuously low during the next 144h) was “significantly lower” and the “HR, 28-day all-cause mortality relative to placebo” value ([4]; DPP3 threshold at baseline 22 ng/ml) was 0.258. The “HR, 28-day all-cause mortality relative to placebo” value ([4]; DPP3 threshold at baseline 30 ng/ml) was 0.309, the “HR, 28-day all-cause mortality relative to placebo” value ([4]; DPP3 threshold at baseline 40 ng/ml) was 0.568 and the “HR, 28-day all-cause mortality relative to placebo” value ([4]; DPP3 threshold at baseline 50 ng/ml) was 0.606.
